Assay results taken from BigSolDB 2.1.

O=C(/C=C/c1ccc(O)c(O)c1)O[C@H](Cc1ccc(O)c(O)c1)C(=O)O
solubility (mole fraction)
Settings | 293.15 K | 298.15 K | 303.15 K | 308.15 K | 313.15 K | 318.15 K
in ethanol | 0.268 | 0.295 | 0.328 | 0.366 | 0.408 | 0.455
in methanol | 0.28 | 0.314 | 0.358 | 0.399 | 0.443 | 0.494
in water | 0.0135 | 0.0151 | 0.0165 | 0.0185 | 0.0209 | 0.0248
